Source: patent EP0021678B1, “1-Sulpho-2-oxoazetidine derivatives, their production and pharmaceutical compositions thereof” (Takeda Chemical Industries, Ltd., priority 1979, dated 1981)

Legend:
Assay in all cases: Anti-bacterial test, minimum inhibitory concentration on agar
Type in all cases: cell-based
[1] = test system: Streptococcus pyogenes E—14; conditions: Streptococcus pyogenes E—14, medium B—TSA
From the text: (§1) The compound (I) thus obtained is useful as a drug, being active against certain gram-positive and gram-negative bacteria. By way of example, the compounds are active against the following micro-organisms.
(§2) The media and compounds employed in the anti-bacterial test are as follows: • Media: • TSA = Trypticase soy agar • [Baltimore Biologicals (U.S.A.)] • B-TSA = Blood trypticase soy agar • Compounds: • Compound A = Sodium 3-[2-(2-amino-4-thiazolyl)-2-methoxyiminoacetamido]-2-oxo-azetidine-1-sulphonate • Compound B = Sodium 3-[D(-)-N-(4-ethyl-2,3-dioxo-1-piperazinocarbonyl)-phenyl-glycin- amido]-2-oxoazetidine-1-sulphonate • Compound C = Sodium 3-[D(-)-N-(4-ethyl-2,3-dioxo-1-piperazinocarbonyl)phenylglycinamido]-3-methoxy-2-oxoazetidine-1-sulphonate • Compound D = Sodium 3-[2-(4-ethyl-2,3-dioxo-1-piperazinocarboxamido)-2-(2-amino-4-thiazolyl)-acetamido]-2-oxoazetidine-1-sulphonate • Compound E = Sodium 3-[DL-2-(4-ethyl-2,3-dioxo-1-piperazinocarboxamido)-2-thienylacetamido]-2-oxoazetidine-1-sulphonate • Compound F = Sodium 3-[D-2-(4-ethyl-2,3-dioxo-1-piperazinocarboxamido)-2-thienylacetamido]-2-oxoazetidine-1-sulphonate • Compound G = Sodium 3-[D-2-(4-n-octyl-2,3-dioxo-1-piperazinocarboxamido)-2-phenylacetamido]-2-oxoazetidine-1-sulphonate • Compound H = Sodium 3-[2-(4-n-octyl-2,3-dioxo-1-piperazinocarboxamido)-2-(2-amino-4-thiazolyl)-acetamido]-2-oxoazetidine-1-sulphonate • Compound I = Sodium 3-[D-2-[(2-oxo-3-furfurylideneaminoimidazolidin-1-yl)-carboxamido]-2-phenylacetamido]-2-oxoazetidine-1-sulphonate • Compound J = Sodium 3-[2-(4-n-octyl-2,3-dioxo-1-piperazinocarboxamido)-2-thienylacetamido]-2-oxoazetidine-1-sulphonate • Compound K = Sodium 3-[D-2-[[2-oxo-3-(thiophen-2-aidoimino)-imidazolidin-1-yl]-carboxamido]-2-phenylacetamido]-2-oxoazetidine-1-sulphonate • Compound L = Sodium 3-[2-[(2-oxo-3-furfurylideneaminoimidazolidin-1-yl)-carboxamido]-2-thienylacetamido]-2-oxoazetidine-1-sulphonate

[2] = test system: Proteus mirabilis IFO 3849; conditions: Proteus mirabilis IFO 3849, medium TSA
From the text: as §1, §2

Candida albicans TA = conditions: Candida albicans TA, medium TSA
From the text: as §1, §2

[3] = test system: Corynebacterium diphtheriae Toronto; conditions: Corynebacterium diphtheriae Toronto, medium B—TSA
From the text: as §1, §2

[4] = test system: Pseudomonas aeruginosa U 31; conditions: Pseudomonas aeruginosa U 31, medium TSA
From the text: as §1, §2

Klebsiella pneumoniae DT = conditions: for Minimum inhibitory concentration: Klebsiella pneumoniae DT, medium TSA
From the text: as §1, §2

[5] = test system: Streptococcus pneumoniae Type I; conditions: Streptococcus pneumoniae Type I; medium B—TSA
From the text: as §1, §2

[6] = test system: Citrobacter freundii IFO 12681; conditions: Citrobacter freundii IFO 12681; medium TSA
From the text: as §1, §2

[7] = test system: Streptococcus mitis America; conditions: Streptococcus mitis America; medium B—TSA
From the text: as §1, §2

[8] = test system: Escherichia coli NIHJ JC—2; conditions: Escherichia coli NIHJ JC—2, medium TSA
From the text: as §1, §2

[9] = test system: Proteus morganii IFO 3168; conditions: Proteus morganii IFO 3168, medium TSA
From the text: as §1, §2

[10] = test system: Acinetobacter calcoaceticus IFO 13006; conditions: Acinetobacter calcoaceticus IFO 13006; medium TSA
From the text: as §1, §2

[11] = test system: Staphylococcus aureus FDA209P; conditions: Staphylococcus aureus FDA209P
From the text: as §1, §2

[12] = test system: Enterobacter cloacae IFO 12937; conditions: Enterobacter cloacae IFO 12937, medium TSA
From the text: as §1, §2

[13] = test system: Serratia marcescens IFO 12648; conditions: Serratia marcescens IFO 12648, medium TSA
From the text: as §1, §2

[14] = test system: Staphylococcus aureus 308A—1; conditions: Staphylococcus aureus 308A—1; medium TSA
From the text: as §1, §2

Escherichia coli T-7 = conditions: medium TSA
From the text: as §1, §2

[15] = test system: Streptococcus faecium IFO 3128; conditions: Streptococcus faecium IFO 3128; medium B—TSA
From the text: as §1, §2

[16] = test system: Streptococcus pyogenes S—8; conditions: Streptococcus pyogenes S—8, medium B—TSA
From the text: as §1, §2

[17] = test system: Pseudomonas aeruginosa IFO 3455; conditions: Pseudomonas aeruginosa IFO 3455; medium TSA
From the text: as §1, §2

[18] = test system: Bordetella bronchiseptica Sagami; conditions: Bordetella bronchiseptica Sagami; medium B—TSA
From the text: as §1, §2

[19] = test system: Proteus vulgaris IFO 3988; conditions: for Minimum inhibitory concentration: Proteus vulgaris IFO 3988, medium TSA
From the text: as §1, §2

[20] = test system: Staphylococcus aureus 1840; conditions: Staphylococcus aureus 1840; medium TSA
From the text: as §1, §2

Escherichia coli O—111 = conditions: medium TSA
From the text: as §1, §2

[21] = read-out: Minimum inhibitory concentration

SMILES	Minimum inhibitory concentration [1] [µg/mL]	Minimum inhibitory concentration [2] [µg/mL]	Minimum inhibitory concentration (Candida albicans TA) [µg/mL]	Minimum inhibitory concentration [3] [µg/mL]	Minimum inhibitory concentration [4] [µg/mL]	Minimum inhibitory concentration (Klebsiella pneumoniae DT) [µg/mL]	Minimum inhibitory concentration [5] [µg/mL]	Minimum inhibitory concentration [6] [µg/mL]	Minimum inhibitory concentration [7] [µg/mL]	Minimum inhibitory concentration [8] [µg/mL]	Minimum inhibitory concentration [9] [µg/mL]	Minimum inhibitory concentration [10] [µg/mL]	Minimum inhibitory concentration ([11]; medium B—TSA) [µg/mL]	Minimum inhibitory concentration ([11]; medium TSA) [µg/mL]	Minimum inhibitory concentration [12] [µg/mL]	Minimum inhibitory concentration [13] [µg/mL]	Minimum inhibitory concentration [14] [µg/mL]	Minimum inhibitory concentration (Escherichia coli T-7) [µg/mL]	Minimum inhibitory concentration [15] [µg/mL]	Minimum inhibitory concentration [16] [µg/mL]	other results
CCN1CCN(C(=O)NC(C(=O)NC2CN(S(=O)(=O)[O-])C2=O)c2cccs2)C(=O)C1=O.[Na+] (racemic) [Compound E, Sodium 3-[DL-2-(4-ethyl-2,3-dioxo-1-piperazinocarboxamido)-2-thienylacetamido]-2-oxoazetidine-1-sulphonate]	1.56	0.78	>100	0.39	>100	0.78	3.13	3.13	25	1.56	12.5	50	6.25	6.25	3.13	3.13	6.25	>100	>100	3.13	Minimum inhibitory concentration [17]: 3.13 µg/mL; Minimum inhibitory concentration [18]: >100 µg/mL; Minimum inhibitory concentration [19]: <0.1 µg/mL; Minimum inhibitory concentration [20]: 25 µg/mL; Minimum inhibitory concentration (Escherichia coli O—111): 0.2 µg/mL
CCN1CCN(C(=O)N[C@@H](C(=O)NC2(OC)CN(S(=O)(=O)O)C2=O)c2ccccc2)C(=O)C1=O (single isomer, unassigned) [Compound C, Sodium 3-[D(-)-N-(4-ethyl-2,3-dioxo-1-piperazinocarbonyl)phenylglycinamido]-3-methoxy-2-oxoazetidine-1-sulphonate]	–	–	–	–	–	–	–	–	–	–	–	–	–	–	–	–	–	–	–	–	MIC [1, 21]: 50 µg/mL; MIC ([2]; IFO3849, read-out: Minimum inhibitory concentration): 50 µg/mL; MIC (Candida albicans TA; [21]): > 100 µg/mL; MIC [3, 21]: 50 µg/mL; MIC ([4]; U31, read-out: Minimum inhibitory concentration): > 100 µg/mL; MIC (Klebsiella pneumoniae DT; Klebsiella pneumoniae, read-out: Minimum inhibitory concentration): 12.5 µg/mL; MIC [8, 21]: 50 µg/mL; MIC ([9]; Morganella morganii, IFO3168, read-out: Minimum inhibitory concentration): > 100 µg/mL; MIC ([11]; Staphylococcus aureus, FDA209P, medium TSA, read-out: Minimum inhibitory concentration): 100 µg/mL; MIC ([12]; IFO12937, read-out: Minimum inhibitory concentration): > 100 µg/mL; MIC ([13]; IFO12648, read-out: Minimum inhibitory concentration): 50 µg/mL; MIC [16, 21]: 50 µg/mL; MIC ([19]; Proteus vulgaris, IFO3988, read-out: Minimum inhibitory concentration): 12.5 µg/mL; MIC (Escherichia coli O—111): 12.5 µg/mL
CCCCCCCCN1CCN(C(=O)NC(C(=O)NC2CN(S(=O)(=O)[O-])C2=O)c2cccs2)C(=O)C1=O.[Na+] (stereo not drawn) [Compound J, Sodium 3-[2-(4-n-octyl-2,3-dioxo-1-piperazinocarboxamido)-2-thienylacetamido]-2-oxoazetidine-1-sulphonate]	1.56	3.13	>100	0.78	25	1.56	1.56	3.13	25	3.13	1.56	6.25	3.13	1.56	6.25	1.56	1.56	>100	>100	1.56	Minimum inhibitory concentration [17]: 6.25 µg/mL; Minimum inhibitory concentration [18]: >100 µg/mL; Minimum inhibitory concentration [19]: 1.56 µg/mL; Minimum inhibitory concentration [20]: 6.25 µg/mL
